Experimental data reported in patent US20100022534A1, “2-BENZIMIDAZOLYL-6-MORPHOLINO-4- (AZETIDINE, PYRROLIDINE, PIPERIDINE OR AZEPINE) PYRIMIDINE DERIVATIVES AS PI3K AND MTOR INHIBITORS FOR THE TREATMENT OF PROLIFERATIVE DISORDERS” (AstraZeneca, priority 2006, published 2010).
pIC50: −log10 of the molar value.

Legend:
p110α Type Ia human PI3K = target: T1, p110α Type Ia human PI3K (Homo sapiens, UniProt P42336); experiment: In vitro PI3K enzyme assay (AlphaScreen), Test (a); type: biochemical; conditions: read-out: IC50 versus p110α Type Ia human PI3K
T1 construct: full length DNA of each of the p110α, p110β and p110δ Type Ia human PI3K p110 isoforms; 6-His; made in house
Source text: (a) In Vitro PI3K Enzyme Assay
The assay used AlphaScreen technology (Gray et al., Analytical Biochemistry, 2003, 313: 234-245) to determine the ability of test compounds to inhibit phosphorylation by recombinant Type I PI3K enzymes of the lipid PI(4,5)P2.
DNA fragments encoding human PI3K catalytic and regulatory subunits were isolated from cDNA libraries using standard molecular biology and PCR cloning techniques. The selected DNA fragments were used to generate baculovirus expression vectors. In particular, full length DNA of each of the p110α, p110β and p110δ Type Ia human PI3K p110 isoforms (EMBL Accession Nos. HSU79143, S67334, Y10055 for p110α, p110β and p110δ respectively) were sub-cloned into a pDEST10 vector (Invitrogen Limited, Fountain Drive, Paisley, UK). The vector is a Gateway-adapted version of Fastbac1 containing a 6-His epitope tag. […]
Biotinylated-DiC8-PI(3,4,5)P3 (50 nM; Cell Signals Inc., Catalogue No. 107), recombinant purified GST-Grp1 PH protein (2.5 μM) and AlphaScreen Anti-GST donor and acceptor beads (100 ng; Packard Bioscience Limited, Station Road, Pangbourne, Berkshire, UK, Catalogue No. 6760603M) were added and the assay plates were left for about 5 to 20 hours at room temperature in the dark. The resultant signals arising from laser light excitation at 680 nm were read using a Packard AlphaQuest instrument. […]

[1] = test system: phosphorylation of Serine 473 in Akt; experiment: In vitro phospho-Ser473 Akt assay in MDA-MB-468 cells, Test (c); type: cell-based; conditions: Homo sapiens, read-out: IC50, inhibition of phosphorylation of Serine 473 in Akt
Protocol: (c) In Vitro Phospho-Ser473 Akt Assay
This assay determines the ability of test compounds to inhibit phosphorylation of Serine 473 in Akt as assessed using Acumen Explorer technology (TTP LabTech Limited, Royston, Herts, SG8 6EE, UK), a plate reader that can be used to rapidly quantitate features of images generated by laser-scanning.
A MDA-MB-468 human breast adenocarcinoma cell line (LGC Promochem, Teddington, Middlesex, UK, Catalogue No. HTB-132) was routinely maintained at 37° C. with 5% CO2 up to a confluency of 70-90% in DMEM containing 10% FCS and 1% L-glutamine.
For the assay, the cells were detached from the culture flask using ‘Accutase’ (Innovative Cell Technologies Inc., San Diego, Calif., USA; Catalogue No. AT104) using standard tissue culture methods and resuspended in media to give 5.5×10^4 cells per ml. Aliquots (90 μl) were seeded into each of the inner 60 wells of a black ‘Costar’ 96-well plate (Corning Inc., NY, USA; Catalogue No. 3904) to give a density of ˜5000 cells per well. Aliquots (90 μl) of culture media were placed in the outer wells to prevent edge effects. [An alternative cell handling procedure involved the maintenance of the cells in a ‘SelecT’ robotic device (The Automation Partnership, Royston, Herts SG8 5WY, UK). Cells were resuspended in media to give 5×10^4 cells per ml. […]

T1 sequence (P42336 whole entry, canonical isoform): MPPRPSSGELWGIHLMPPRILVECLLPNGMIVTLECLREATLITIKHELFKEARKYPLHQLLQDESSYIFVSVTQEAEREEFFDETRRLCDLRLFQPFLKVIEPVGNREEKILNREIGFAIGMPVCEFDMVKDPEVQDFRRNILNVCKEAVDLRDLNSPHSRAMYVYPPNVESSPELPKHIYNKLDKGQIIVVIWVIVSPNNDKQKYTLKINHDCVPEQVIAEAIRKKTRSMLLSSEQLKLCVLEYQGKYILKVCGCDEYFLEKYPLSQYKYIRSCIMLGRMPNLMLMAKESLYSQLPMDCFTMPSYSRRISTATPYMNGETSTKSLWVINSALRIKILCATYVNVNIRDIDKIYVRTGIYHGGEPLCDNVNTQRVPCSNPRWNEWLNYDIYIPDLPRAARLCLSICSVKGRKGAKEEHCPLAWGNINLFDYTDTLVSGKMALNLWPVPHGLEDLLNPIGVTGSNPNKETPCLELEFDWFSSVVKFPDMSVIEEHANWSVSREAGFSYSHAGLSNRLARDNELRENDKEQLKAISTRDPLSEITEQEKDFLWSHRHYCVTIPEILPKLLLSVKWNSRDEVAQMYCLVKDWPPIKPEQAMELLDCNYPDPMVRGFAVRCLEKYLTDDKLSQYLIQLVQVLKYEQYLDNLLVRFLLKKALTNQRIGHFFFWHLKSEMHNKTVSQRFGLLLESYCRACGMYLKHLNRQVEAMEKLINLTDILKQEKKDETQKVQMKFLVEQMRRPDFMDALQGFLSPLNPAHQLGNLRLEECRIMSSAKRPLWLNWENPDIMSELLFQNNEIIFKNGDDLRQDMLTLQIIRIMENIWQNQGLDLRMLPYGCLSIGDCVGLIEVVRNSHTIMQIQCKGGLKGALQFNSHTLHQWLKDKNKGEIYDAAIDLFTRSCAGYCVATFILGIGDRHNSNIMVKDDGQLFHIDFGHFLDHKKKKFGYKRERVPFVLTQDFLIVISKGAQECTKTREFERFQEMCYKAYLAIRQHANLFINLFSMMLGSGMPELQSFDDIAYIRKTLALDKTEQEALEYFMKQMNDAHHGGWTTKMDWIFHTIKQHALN
T1 sequence (P27986 whole entry partner, canonical isoform): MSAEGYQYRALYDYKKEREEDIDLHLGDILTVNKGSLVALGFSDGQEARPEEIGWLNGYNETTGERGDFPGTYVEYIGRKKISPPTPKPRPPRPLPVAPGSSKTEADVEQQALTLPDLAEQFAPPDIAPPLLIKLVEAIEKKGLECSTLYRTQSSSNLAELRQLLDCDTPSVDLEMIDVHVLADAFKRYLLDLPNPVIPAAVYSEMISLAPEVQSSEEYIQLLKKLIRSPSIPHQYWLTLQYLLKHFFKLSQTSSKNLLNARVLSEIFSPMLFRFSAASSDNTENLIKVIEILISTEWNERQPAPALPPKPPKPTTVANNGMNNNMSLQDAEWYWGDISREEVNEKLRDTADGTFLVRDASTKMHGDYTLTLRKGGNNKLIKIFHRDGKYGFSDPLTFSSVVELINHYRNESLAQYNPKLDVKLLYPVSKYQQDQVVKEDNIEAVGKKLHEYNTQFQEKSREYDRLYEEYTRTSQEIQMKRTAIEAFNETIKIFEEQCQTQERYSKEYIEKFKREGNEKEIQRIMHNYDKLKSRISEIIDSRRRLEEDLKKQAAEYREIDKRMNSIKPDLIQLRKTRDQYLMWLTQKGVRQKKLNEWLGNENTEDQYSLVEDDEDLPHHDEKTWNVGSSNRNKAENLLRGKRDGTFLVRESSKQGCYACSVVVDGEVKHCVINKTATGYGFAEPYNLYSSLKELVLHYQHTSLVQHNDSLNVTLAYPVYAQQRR

pIC50 (p110α Type Ia human PI3K)	pIC50 [1]	Compound
~6.70	~8.00	NCCC1CCN(c2cc(N3CCOCC3)nc(-n3c(C(F)F)nc4ccccc43)n2)CC1 [Example 1, 4-[4-(2-aminoethyl)piperidin-1-yl]-2-(2-difluoromethylbenzimidazol-1-yl)-6-morpholinopyrimidine]
~6.40	~7.00	O=C(NC1CCN(c2cc(N3CCOCC3)nc(-n3c(C(F)F)nc4ccccc43)n2)CC1)[C@@H]1CCCN1 [Example 3, 2-(2-difluoromethylbenzimidazol-1-yl)-6-morpholino-4-(4-prolylaminopiperidin-1-yl)pyrimidine]
